These results are taken from patent US3984562A, “Substituted benzodiazepines and method of use” (American Cyanamid Company, priority 1975, dated 1976).

Usually ED50 stands for the midpoint of the dose-response relation.

Read-outs that look alike come from different tables or passages of the source.

The nature of this assay: protection from convulsions resulting from the administration of pentylenetetrazole (anti-anxiety test, rats, oral). The class given is in vivo. The note with it: Rattus norvegicus, read-out: Median Effective Oral Dose ED50. The method, then:
The anti-anxiety properties of these compounds have been established in a test which indicates anxiolytic activity by a measure of protection from convulsions resulting from the administration of pentylenetetrazole. Graded dose levels of the compounds are administered orally, in a 2% starch vehicle, to groups of at least 5 rats. At the estimated time of peak effect, the rats are treated intravenously with pentylenetetrazole at a dose of 21 to 23 mg./kg. of body weight. This dose is estimated to cause clonic seizures in 99% of unprotected rats. The effective dose of the test compound for protection of 50% of the animals (ED50) is calculated by the method of D. H. Finney in Statistical Methods in Biological Assay, Second Edition, Hafner Publishing Co., New York, 1964, pp. 456-457. The results of this test on representative compounds of the present invention are given in the following table in comparison with meprobromate which is tested in the same manner. It has been reported [R. T. Hill and D. H. Tedeschi, "Animal Testing and Screening Procedures in Evaluating Psychotropic Drugs" in An Introduction to Psychopharmacology, Eds. R. R. Rech and K. E. Moore, Raven Press, New York, pp. 237-288 (1971)] that there is a high degree of correlation between antagonism of pentylenetetrazole seizures in rats and anti-anxiety effects in higher warm-blooded animals.

Where [1] appears, read: oral, 2% starch vehicle, rats (at least 5 per group), pentylenetetrazole 21 to 23 mg./kg. intravenously at estimated time of peak effect, protection of 50% of animals.

`O=C(CCN1CCCCC1)N1CC2CCCN2Cc2ccccc21` (single isomer, unassigned; (-)) [(-)-2,3,5,10,11,11a-Hexahydro-10-(3-piperidinopropionyl)-1H-pyrrolo[2,1-c][1,4]benzodiazepine]: under setting [1], the ED50 was 16 mg/kg.

Take `O=C(CCN1CCCC1)N1CC2CCCN2Cc2ccccc21` (single isomer, unassigned; (-)) [(-)-2,3,5,10,11,11a-Hexahydro-10-[3-(1-pyrrolidinyl)-propionyl]-1H-pyrrolo[2,1-c] [1,4]benzodiazepine]: the 50% effective dose (ED50) under setting [1] is 57 mg/kg.

Take `O=C(CCN1CCCC1)N1CC2CCCN2Cc2cc(Cl)ccc21` (single isomer, unassigned; (-)) [(-)-7-Chloro-2,3,5,10,11,11a-hexahydro-10-[3-(1-pyrrolidinyl)-propionyl]-1H-pyrrolo[2,1-c][1,4]benzodiazepine]: the median effective dose (ED50) under setting [1] is 7 mg/kg.

`CCCC(C)(COC(N)=O)COC(N)=O` [meprobromate, reference compound]: the ED50 (po) was 22 mg/kg.
